Assay results: the supplement of paper PMC10307832

Legend:
Assay in all cases: relative viability (nuclei count vs DMSO), 5 days (fraction); higher = more cells survive
IU1-47 + OSI-027 = compound: CC1=CC(=C(N1C2=CC=C(C=C2)Cl)C)C(=O)CN3CCCCC3 [IU1-47] + COc1cccc2cc(-c3nc([C@H]4CC[C@H](C(=O)O)CC4)n4ncnc(N)c34)[nH]c12 [OSI-027] (partner 0.5 µM)
Summary of the method: (§1)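 Lung cancer cell lines in 1536-well plates were dosed by pin tool the day after seeding, either with one drug alone or with a fixed anchor-drug dose plus five library-drug doses (not always all listed) in √10 steps. After 5 days, cells were fixed and their nuclei stained in one step (final 0.05% Triton X-100, 1% formaldehyde, 1 ug/ml Hoechst), then counted on 4× images. Relative viability is the nuclei count in treated wells divided by that in vehicle wells. Values are medians of duplicate plates.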

IU1-47 + Crizotinib = compound: CC1=CC(=C(N1C2=CC=C(C=C2)Cl)C)C(=O)CN3CCCCC3 [IU1-47] + C[C@@H](Oc1cc(-c2cnn(C3CCNCC3)c2)cnc1N)c1c(Cl)ccc(F)c1Cl [Crizotinib] (partner 1 µM)
Summary of the method: as §1

FG-4592 + Phenformin = compound: Cc1nc(C(=O)NCC(=O)O)c(O)c2ccc(Oc3ccccc3)cc12 [FG-4592] + N=C(N)NC(=N)NCCc1ccccc1 [Phenformin] (partner 250 µM)
Summary of the method: as §1

FG-4592 + Pemetrexed = compound: Cc1nc(C(=O)NCC(=O)O)c(O)c2ccc(Oc3ccccc3)cc12 [FG-4592] + Nc1nc2[nH]cc(CCc3ccc(C(=O)N[C@@H](CCC(=O)O)C(=O)O)cc3)c2c(=O)[nH]1 [Pemetrexed] (partner 0.2 µM)
Summary of the method: as §1

Cell Line: UMC-11
- relative viability (IU1-47 + OSI-027; first compound 0.08 µM): 0.498
- relative viability (IU1-47 + OSI-027; first compound 0.253 µM): 0.43
- relative viability (IU1-47 + OSI-027; first compound 0.8 µM): 0.523
- relative viability (IU1-47 + OSI-027; first compound 2.53 µM): 0.611
- relative viability (IU1-47 + OSI-027; first compound 8 µM): 0.465
- relative viability (IU1-47 + Crizotinib; first compound 0.08 µM): 0.564
- relative viability (IU1-47 + Crizotinib; first compound 0.253 µM): 0.641
- relative viability (IU1-47 + Crizotinib; first compound 0.8 µM): 0.476
- relative viability (IU1-47 + Crizotinib; first compound 2.53 µM): 0.673
- relative viability (IU1-47 + Crizotinib; first compound 8 µM): 0.574
- relative viability (FG-4592 + Phenformin; first compound 0.08 µM): 0.323
- relative viability (FG-4592 + Phenformin; first compound 0.253 µM): 0.291
- relative viability (FG-4592 + Phenformin; first compound 0.8 µM): 0.322
- relative viability (FG-4592 + Phenformin; first compound 2.53 µM): 0.314
- relative viability (FG-4592 + Phenformin; first compound 8 µM): 0.395
- relative viability (FG-4592 + Pemetrexed; first compound 0.08 µM): 0.738
- relative viability (FG-4592 + Pemetrexed; first compound 0.253 µM): 0.867
- relative viability (FG-4592 + Pemetrexed; first compound 0.8 µM): 0.843
- relative viability (FG-4592 + Pemetrexed; first compound 2.53 µM): 0.791
- relative viability (FG-4592 + Pemetrexed; first compound 8 µM): 0.688
